The values below come from ChEMBL document CHEMBL1134950, “Retro-binding thrombin active site inhibitors: identification of an orally active inhibitor of thrombin catalytic activity” (Bioorg Med Chem Lett, 2002).

The subject of experiment [1] is Mus musculus. As to the kind of experiment: Efficacy required to inhibit thrombin was determined after 1 hr of intravenous administration in the mouse thrombin challenge model. The format is functional.
The next experiment concerns the target Plasminogen (Homo sapiens, UniProt P00747). As to the kind of experiment: Concentration required to inhibit Plasmin was determined.
Another experiment has as its target Coagulation factor X (Homo sapiens, UniProt P00742). As to the kind of experiment: Concentration required to inhibit Coagulation factor X was determined.
For experiment [2], the system named is Mus musculus. As to the kind of experiment: Efficacy required to inhibit thrombin was determined after 10 min of intravenous administration in the mouse thrombin challenge model. The format is functional.
Experiment [3] deals with T1, Prothrombin (Homo sapiens, UniProt P00734). As to the kind of experiment: Concentration required to inhibit thrombin was determined.
Experiment [4] has as its target T2, Tissue-type plasminogen activator (Homo sapiens, UniProt P00750). As to the kind of experiment: Concentration required to inhibit tissue-type plasminogen activator (t-PA) was determined.
For experiment [5], the system named is Mus musculus. As to the kind of experiment: Efficacy required to inhibit thrombin was determined after 1 hr of oral administration in the mouse thrombin challenge model. It is filed as functional.
In another experiment the target is T3, Serine protease 1 (Bos taurus, UniProt P00760).
T3 sequence (P00760 whole entry): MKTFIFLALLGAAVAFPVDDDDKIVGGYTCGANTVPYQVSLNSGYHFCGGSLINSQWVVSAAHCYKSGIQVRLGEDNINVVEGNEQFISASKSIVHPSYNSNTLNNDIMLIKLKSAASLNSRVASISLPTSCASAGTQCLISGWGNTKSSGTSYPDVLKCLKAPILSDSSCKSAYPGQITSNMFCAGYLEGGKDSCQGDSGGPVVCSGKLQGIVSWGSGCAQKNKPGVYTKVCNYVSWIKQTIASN
As to the kind of experiment: Concentration required to inhibit Trypsin was determined.

Experiment [6] has as its target T1, Prothrombin. As to the kind of experiment: Concentration required to inhibit Human alpha-thrombin was determined.
In experiment [7] the target is T1, Prothrombin. As to the kind of experiment: Inhibitory constant of thrombin catalytic activity was determined.
For experiment [8], the target named is T2, Tissue-type plasminogen activator. As to the kind of experiment: Concentration required to inhibit Tissue-type plasminogen activator (t-PA) was determined.

Molecules are shown by their SMILES. pIC50, pKi: −log10 of the molar value.

T2 sequence (P00750 whole entry): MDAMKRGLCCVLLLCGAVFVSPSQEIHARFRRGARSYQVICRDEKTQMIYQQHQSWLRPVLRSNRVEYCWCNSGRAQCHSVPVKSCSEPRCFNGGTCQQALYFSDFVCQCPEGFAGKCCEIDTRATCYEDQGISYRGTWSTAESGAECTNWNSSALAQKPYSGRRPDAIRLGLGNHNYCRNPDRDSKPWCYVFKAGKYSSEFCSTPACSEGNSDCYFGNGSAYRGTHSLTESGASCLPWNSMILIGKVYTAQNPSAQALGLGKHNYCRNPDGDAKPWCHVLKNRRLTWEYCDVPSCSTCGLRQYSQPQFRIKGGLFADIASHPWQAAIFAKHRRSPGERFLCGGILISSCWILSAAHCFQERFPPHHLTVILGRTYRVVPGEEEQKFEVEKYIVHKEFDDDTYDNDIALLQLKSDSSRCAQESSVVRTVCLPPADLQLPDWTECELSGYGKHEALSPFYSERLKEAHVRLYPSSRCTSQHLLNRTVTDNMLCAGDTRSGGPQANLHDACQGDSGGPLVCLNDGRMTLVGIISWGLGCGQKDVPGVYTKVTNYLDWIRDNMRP
Chain of Coagulation factor X (P00742 41-179 limits assumed): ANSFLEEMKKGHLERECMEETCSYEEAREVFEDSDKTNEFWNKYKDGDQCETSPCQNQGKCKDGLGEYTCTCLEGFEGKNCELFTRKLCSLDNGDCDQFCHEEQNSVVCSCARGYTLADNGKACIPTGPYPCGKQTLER
Chain of Coagulation factor X (P00742 235-488 limits assumed): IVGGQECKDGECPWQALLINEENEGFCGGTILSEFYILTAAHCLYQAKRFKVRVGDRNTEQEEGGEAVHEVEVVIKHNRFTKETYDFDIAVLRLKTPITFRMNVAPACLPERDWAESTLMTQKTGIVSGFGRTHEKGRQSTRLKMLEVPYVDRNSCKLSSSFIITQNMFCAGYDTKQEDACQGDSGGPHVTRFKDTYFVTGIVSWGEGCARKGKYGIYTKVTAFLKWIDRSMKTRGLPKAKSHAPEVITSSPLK
Chain of Plasminogen (P00747 97-580 limits assumed): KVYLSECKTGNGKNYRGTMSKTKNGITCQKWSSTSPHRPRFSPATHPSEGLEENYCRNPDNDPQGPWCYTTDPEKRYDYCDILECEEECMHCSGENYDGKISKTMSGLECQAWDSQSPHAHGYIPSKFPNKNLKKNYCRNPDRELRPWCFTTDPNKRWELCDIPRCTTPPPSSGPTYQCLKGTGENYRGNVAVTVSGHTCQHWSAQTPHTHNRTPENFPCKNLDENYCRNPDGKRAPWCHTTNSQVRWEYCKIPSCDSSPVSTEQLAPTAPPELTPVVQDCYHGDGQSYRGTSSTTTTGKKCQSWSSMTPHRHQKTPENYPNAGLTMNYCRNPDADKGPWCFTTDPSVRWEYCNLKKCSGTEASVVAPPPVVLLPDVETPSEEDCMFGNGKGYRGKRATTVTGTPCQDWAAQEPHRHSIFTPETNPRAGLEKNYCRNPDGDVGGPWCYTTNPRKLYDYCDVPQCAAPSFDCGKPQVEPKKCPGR
Chain of Plasminogen (P00747 581-810 limits assumed): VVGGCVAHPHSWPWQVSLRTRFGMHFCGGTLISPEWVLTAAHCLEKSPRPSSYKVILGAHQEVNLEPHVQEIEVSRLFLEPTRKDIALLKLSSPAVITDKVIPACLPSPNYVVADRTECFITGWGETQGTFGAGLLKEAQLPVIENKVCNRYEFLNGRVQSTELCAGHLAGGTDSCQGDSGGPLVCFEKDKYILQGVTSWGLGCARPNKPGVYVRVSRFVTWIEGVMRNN

Broadly, the ED50 is the midpoint of the dose-response relation. High values mean a need for a large dose, low ones an effect at a small dose. The pIC50 is −log10 of the IC50, conventionally taken in molar units. A high value points to a low IC50. For the molecule `CC(O)[C@@H](C(=O)N[C@H](C)c1ccccc1)N(C)C(=O)[C@H](Cc1ccc([N+](=O)[O-])cc1)NC(=O)CCCN=C(N)N` (some centres not stated), the ED50 in the experiment with Mus musculus [1] stood at 2.2 mg/kg; with Mus musculus [2], 0.21 mg/kg; in the experiment with Mus musculus [5] it was 23 mg/kg. In addition, the pIC50 at Plasminogen was 6.64; at Coagulation factor X, 5.34; against Prothrombin [3], 8.10; in experiment [4], 6.15; on Serine protease 1, 8.10.
With `CC(O)[C@H](NC(=O)[C@H](Cc1ccc([N+](=O)[O-])cc1)NC(=O)CCCN=C(N)N)C(=O)N[C@H](CO)c1ccccc1` (some centres not stated), the pIC50 against Prothrombin [6] is 7.72.
Same read-out and setting: as for `CC(O)[C@H](NC(=O)[C@H](Cc1ccc([N+](=O)[O-])cc1)NC(=O)CCCN=C(N)N)C(N)=O` (some centres not stated), the figure is 3.64.
On the same count and under the same terms, to `COC(=O)[C@@H](NC(=O)[C@@H](NC(=O)[C@H](Cc1ccc([N+](=O)[O-])cc1)NC(=O)CCCN=C(N)N)C(C)O)C1CCCCC1` (some centres not stated) belongs 7.80.
At Prothrombin [6], `CC(O)[C@H](NC(=O)[C@H](Cc1ccc([N+](=O)[O-])cc1)NC(=O)CCCN=C(N)N)C(=O)N[C@@H](C)c1ccccc1` (some centres not stated) had a pIC50 of 6.51.
On the same count and under the same terms, to `CC(O)[C@H](NC(=O)[C@H](Cc1ccc([N+](=O)[O-])cc1)NC(=O)CCCN=C(N)N)C(=O)N[C@H](C)c1ccccc1` (some centres not stated) belongs 7.14.
Regarding `COC(=O)[C@@H](NC(=O)[C@@H](NC(=O)[C@H](Cc1ccc([N+](=O)[O-])cc1)NC(=O)CCCN=C(N)N)C(C)O)c1ccccc1` (some centres not stated), on Prothrombin [6], the pIC50 is 8.08.
Take `CC(O)[C@H](NC(=O)[C@H](Cc1ccc([N+](=O)[O-])cc1)NC(=O)CCCN=C(N)N)C(=O)N[C@@H](C)Cc1ccccc1` (some centres not stated): at Prothrombin [6], the pIC50 was 6.59.
Still for that read-out and setting: as for `CC(O)[C@H](NC(=O)[C@H](Cc1ccc([N+](=O)[O-])cc1)NC(=O)CCCN=C(N)N)C(=O)N[C@H](C(=O)O)C1CCCCC1` (some centres not stated), the figure is 7.26; as for `CC(O)[C@H](NC(=O)[C@H](Cc1ccc([N+](=O)[O-])cc1)NC(=O)CCCN=C(N)N)C(=O)N[C@H](CO)C1CCCCC1` (some centres not stated), 7.72.
Take `CC(O)[C@H](NC(=O)[C@H](Cc1ccc([N+](=O)[O-])cc1)NC(=O)CCCN=C(N)N)C(=O)N[C@H](C)Cc1ccccc1` (some centres not stated): the pIC50 at Prothrombin [6] is 7.37. This pIC50 lies 0.35 log units lower than the previous one.
Broadly, the pKi is the Ki on a negative log10 scale, so that one unit is a factor of ten. A lower pKi goes with a high Ki. As for `CN[C@H](Cc1ccccc1)C(=O)N1CCC[C@H]1C(=O)N[C@H](C=O)CCCNC(=N)N` [EFEGATRAN], the ED50 in the experiment with Mus musculus [1] is 3 mg/kg; in the experiment with Mus musculus [2] it was 0.04 mg/kg; with Mus musculus [5], 44 mg/kg. Besides, the pIC50 is 4.60 on Plasminogen; 4.80 at Coagulation factor X; 7.52 at Prothrombin [3]; 4.47 in experiment [8]; 7.35 against Serine protease 1. The same molecule gave a pKi on Prothrombin [7] of 8.15.
